The test has as its target interaction between p53 and MDM2 proteins (recombinant GST-tagged MDM2, biotinylated p53 peptide) (Homo sapiens, UniProt Q00987). The test is described as follows: HTRF assay of inhibition of the p53-MDM2 interaction. The test is classed as binding. The settings on record: bsa: 0.02%. How it is done: The ability of the compounds to inhibit the interaction between p53 and MDM2 proteins was measured by an HTRF (homogeneous time-resolved fluorescence) assay in which recombinant GST-tagged MDM2 binds to a peptide that resembles the MDM2-interacting region of p53 (Lane et al.). Binding of GST-MDM2 protein and p53-peptide (biotinylated on its N-terminal end) is registered by the FRET (fluorescence resonance energy transfer) between Europium (Eu)-labeled anti-GST antibody and streptavidin-conjugated Allophycocyanin (APC).
[…] Add 10 uL diluted compounds (1:5 dilution in reaction buffer) to each well, mix by shaking. Add 20 uL biotinylated p53 peptide (180 nM working solution) in reaction buffer to each well and mix on shaker. Incubate at 37° C. for 1 h. Add 20 uL streptavidin-APC and Eu-anti-GST antibody mixture (6 nM Eu-anti-GST and 60 nM streptavidin-APC working solution) in TBS buffer with 0.2% BSA, shake at room temperature for 30 minutes and read using a TRF-capable plate reader at 665 and 615 nm (Victor 5, Perkin ElmerWallac). If not specified, the reagents were purchased from Sigma Chemical Co.
A general note: In TR-FRET formats the signal depends on donor and acceptor labels being close together.

Structures are written as SMILES.

Sequence of interaction between p53 and MDM2 proteins (recombinant GST-tagged MDM2, biotinylated p53 peptide) (Q00987 whole entry): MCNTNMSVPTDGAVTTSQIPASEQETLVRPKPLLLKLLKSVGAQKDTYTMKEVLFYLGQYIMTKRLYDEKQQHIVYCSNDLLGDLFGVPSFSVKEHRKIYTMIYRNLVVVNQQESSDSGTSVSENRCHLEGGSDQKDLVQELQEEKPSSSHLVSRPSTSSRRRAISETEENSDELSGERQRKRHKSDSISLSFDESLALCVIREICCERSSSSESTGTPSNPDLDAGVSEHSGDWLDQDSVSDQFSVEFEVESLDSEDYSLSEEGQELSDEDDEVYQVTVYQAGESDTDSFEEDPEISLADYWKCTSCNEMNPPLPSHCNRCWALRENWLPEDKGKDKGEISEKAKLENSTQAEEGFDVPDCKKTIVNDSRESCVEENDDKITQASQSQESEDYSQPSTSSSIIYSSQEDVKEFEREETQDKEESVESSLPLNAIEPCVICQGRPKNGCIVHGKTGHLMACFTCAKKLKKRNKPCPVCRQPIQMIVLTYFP

A word on the IC50: it is the concentration that gives 50% inhibition. `CC(C)(C)C[C@@H]1CN(C(=O)c2ccc(C(=O)O)cc2)[C@H](c2cccc(Cl)c2F)[C@@]1(C#N)c1ccc(Cl)cc1F` (racemic) [Example 12, rac-4-[(2S,3S,4S)-2-(3-chloro-2-fluoro-phenyl)-3-(4-chloro-2-fluoro-phenyl)-3-cyano-4-(2,2-dimethyl-propyl)-pyrrolidine-1-carbonyl]-benzoic acid]: the IC50 is 0.644 µM.
Consider `CC(C)(C)C[C@@H]1CN(C(=O)Nc2cccc(-c3nnn[nH]3)c2)[C@H](c2cccc(Cl)c2F)[C@@]1(C#N)c1ccc(Cl)cc1F` (racemic) [Example 16, rac-(2S,3S,4S)-2-(3-chloro-2-fluoro-phenyl)-3-(4-chloro-2-fluoro-phenyl)-3-cyano-4-(2,2-dimethyl-propyl)-pyrrolidine-1-carboxylic acid [3-(1H-tetrazol-5-yl)-phenyl]-amide], for which the IC50 was determined as 3.23 µM.
The result for `CC(C)(C)C[C@@H]1CN(C(=O)NCC[C@H](O)CO)[C@H](c2cccc(Cl)c2F)[C@@]1(C#N)c1ccc(Cl)cc1F` (mixture of isomers) [Example 4, rac-(2S,3S,4S)-2-(3-chloro-2-fluoro-phenyl)-3-(4-chloro-2-fluoro-phenyl)-3-cyano-4-(2,2-dimethyl-propyl)-pyrrolidine-1-carboxylic acid ((S)-3,4-dihydroxy-butyl)-amide] reads 0.269 µM; that for `CC(C)(C)C[C@@H]1CN(C(=O)Nc2ccncc2)[C@H](c2cccc(Cl)c2F)[C@@]1(C#N)c1ccc(Cl)cc1F` (racemic) [Example 48, rac-(2S,3S,4S)-2-(3-chloro-2-fluoro-phenyl)-3-(4-chloro-2-fluoro-phenyl)-3-cyano-4-(2,2-dimethyl-propyl)-pyrrolidine-1-carboxylic acid pyridin-4-ylamide], 1.73 µM.

(Values after patent publication US8017607B2, “N-substituted-pyrrolidines as inhibitors of MDM2-P-53 interactions” (Hoffmann-La Roche Inc., priority 2009, dated 2011).)
